The target of the assay is melittin (Apis mellifera, UniProt P01501). Description: biochemical. It is filed as binding, bee.

Molecules are shown by their SMILES.

melittin, sequence (P01501 44-69 limits assumed): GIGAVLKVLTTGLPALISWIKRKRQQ

`CCCCOc1c2cc(C(=O)Nc3cc4cc(c3)C(=O)NCC(=O)N[C@@H](CC(=O)O)C(=O)NCC(=O)N[C@@H](CC(=O)O)C(=O)NC4)cc1Cc1cc(C(=O)Nc3cc4cc(c3)C(=O)NCC(=O)N[C@@H](CC(=O)O)C(=O)NCC(=O)N[C@@H](CC(=O)O)C(=O)NC4)cc(c1OCCCC)Cc1cc(C(=O)Nc3cc4cc(c3)C(=O)NCC(=O)N[C@@H](CC(=O)O)C(=O)NCC(=O)N[C@@H](CC(=O)O)C(=O)NC4)cc(c1OCCCC)Cc1cc(C(=O)Nc3cc4cc(c3)C(=O)NCC(=O)N[C@@H](CC(=O)O)C(=O)NCC(=O)N[C@@H](CC(=O)O)C(=O)NC4)cc(c1OCCCC)C2` [compound 1, Calix[4]arenetetracyclicpeptide1] came in with a Kd of 1000 nM.

(Values after patent publication US5770380A (priority 1996, dated 1998).)
